Experimental findings from PubChem BioAssay (NCI) are described below.

Test systems include BT-549 breast; SK-MEL-5 melanoma; NCI-H23 lung; CCRF-CEM leukemia; CAKI-1 renal; HL-60(TB) leukemia; COLO 205 colon; HCT-15 colon; NCI-H522 lung; RXF 393 renal.
What all share (test): NCI-60 cell line screen, 48 h

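Method: 48-hour compound exposure of cells in 96-well plates, five concentrations, linear interpolation of endpoints. GI50 is the concentration that inhibits growth by half. TGI: total growth inhibition.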

`COc1cc(C2C3=C(COC3=O)N(CCO)c3cc4c(cc32)OCCO4)cc(OC)c1OC` (stereo unspecified): the GI50 is 0.32 µM in the assay on BT-549 breast; 0.179 µM with SK-MEL-5 melanoma; 0.203 µM in the assay on NCI-H23 lung; 0.176 µM in the assay with CCRF-CEM leukemia; 2.11 µM in the assay on CAKI-1 renal; 0.155 µM with HL-60(TB) leukemia. Further, the GI50 in the assay on COLO 205 colon is 0.15 µM; in the assay on HCT-15 colon it was 1.37 µM; with NCI-H522 lung, 0.0626 µM. Further, the TGI in the assay on BT-549 breast was greater than 11.8 µM; in the assay with SK-MEL-5 melanoma, 0.916 µM; in the assay with CCRF-CEM leukemia, greater than 50 µM; in the assay with CAKI-1 renal it was greater than 50 µM; in the assay on HL-60(TB) leukemia, 1.28 µM; in the assay with COLO 205 colon, 0.409 µM. The TGI in the assay with HCT-15 colon is greater than 50 µM; in the assay on NCI-H522 lung, 0.185 µM.

Take `COc1ccc(/C=C/c2c(C(=O)/C=C/c3ccc(C(F)(F)F)cc3)c(C)nc3ccccc23)cc1`: the GI50 in the assay on BT-549 breast was 1.8 µM; in the assay on SK-MEL-5 melanoma it was 1.68 µM; with CCRF-CEM leukemia it was 0.425 µM; with CAKI-1 renal, 1.13 µM; with HL-60(TB) leukemia, 1.92 µM; in the assay on COLO 205 colon, 2.1 µM. For the same compound, the GI50 with RXF 393 renal was 1.74 µM; in the assay with HCT-15 colon it was 1.14 µM; with NCI-H522 lung, 1.67 µM. Further, the TGI with BT-549 breast is 4 µM; in the assay with SK-MEL-5 melanoma, 3.09 µM; in the assay with CCRF-CEM leukemia it was greater than 100 µM; in the assay with CAKI-1 renal, 2.56 µM; in the assay with HL-60(TB) leukemia, 5.67 µM; with COLO 205 colon it was 4.67 µM. Also, the TGI is 3.52 µM in the assay with RXF 393 renal, 4.59 µM with HCT-15 colon and 5.69 µM in the assay with NCI-H522 lung.

On to `c1ccc(OCCC[P+](c2ccccc2)(c2ccccc2)c2ccccc2)cc1`, for which the GI50 in the assay with BT-549 breast was 1.42 µM; in the assay on SK-MEL-5 melanoma, 0.438 µM; with NCI-H23 lung, 1.81 µM; in the assay with CCRF-CEM leukemia, 1.85 µM; in the assay on CAKI-1 renal, 10.1 µM; in the assay with HL-60(TB) leukemia it was 0.285 µM. For the same compound, the GI50 is 0.97 µM in the assay with COLO 205 colon, 22.2 µM in the assay on HCT-15 colon and 0.574 µM with NCI-H522 lung. Besides, the TGI with BT-549 breast is 17.1 µM; with SK-MEL-5 melanoma, 1.74 µM; in the assay on NCI-H23 lung, 10.9 µM; with CCRF-CEM leukemia it was 18.1 µM; in the assay with CAKI-1 renal, 27.9 µM; in the assay with HL-60(TB) leukemia, 0.832 µM. Further, the TGI in the assay on COLO 205 colon is 3.47 µM; in the assay on HCT-15 colon, greater than 100 µM; in the assay with NCI-H522 lung, 4.24 µM.

`Clc1ccc(-c2c3ccc(=[N+]4CCCCC4)cc-3oc3cc(N4CCCCC4)ccc23)cc1`: the GI50 was 0.154 µM in the assay with BT-549 breast; 0.156 µM with SK-MEL-5 melanoma; 0.153 µM in the assay on CCRF-CEM leukemia; 0.0942 µM in the assay with HL-60(TB) leukemia; 0.129 µM in the assay with RXF 393 renal. Further, the TGI in the assay with BT-549 breast worked out at 0.31 µM; in the assay with SK-MEL-5 melanoma it was 0.291 µM; in the assay on CCRF-CEM leukemia it was 1.97 µM; with HL-60(TB) leukemia, 0.471 µM; with RXF 393 renal, 0.279 µM.

Take `Cc1cc(C)c(C#N)c(Sc2nc(C)c([N+](=O)[O-])c(C)c2C#N)n1`: the GI50 was 2.66 µM with BT-549 breast; 4.02 µM with SK-MEL-5 melanoma; 2.87 µM in the assay with NCI-H23 lung; 2.17 µM in the assay with CAKI-1 renal; 2.63 µM in the assay on HL-60(TB) leukemia; 2.58 µM in the assay on COLO 205 colon. For the same compound, the GI50 in the assay with RXF 393 renal was 2.16 µM; in the assay with HCT-15 colon it was 2.32 µM. The TGI was 7.5 µM in the assay with BT-549 breast; 16.4 µM in the assay with SK-MEL-5 melanoma; 10.4 µM with NCI-H23 lung; 5.65 µM in the assay on CAKI-1 renal; 7.34 µM with HL-60(TB) leukemia; 5.55 µM with COLO 205 colon. Further, the figures for the TGI in the assay with RXF 393 renal and in the assay on HCT-15 colon were 5.55 µM and 6.25 µM, respectively.

Regarding `CCCOC(=O)c1c(C)n(C)c2scc[n+]12`, the GI50 with BT-549 breast was 35.9 µM; in the assay with SK-MEL-5 melanoma, 49.1 µM; in the assay on NCI-H23 lung, 34.2 µM; in the assay with CCRF-CEM leukemia, 53.5 µM; in the assay with CAKI-1 renal, 39.9 µM; with HL-60(TB) leukemia it was greater than 100 µM. Further, the GI50 is 17.8 µM in the assay with COLO 205 colon, greater than 100 µM in the assay on HCT-15 colon and 31.4 µM in the assay on NCI-H522 lung. Further, the TGI in the assay with BT-549 breast, with SK-MEL-5 melanoma, in the assay with NCI-H23 lung, with CCRF-CEM leukemia, with CAKI-1 renal and with HL-60(TB) leukemia was greater than 100 µM in each case. Moreover, the TGI was 46.8 µM in the assay with COLO 205 colon, greater than 100 µM with HCT-15 colon and greater than 100 µM in the assay with NCI-H522 lung.

Take `COC(=O)c1c(-c2cccs2)oc(-c2cccs2)c1C(=O)OC`: the GI50 in the assay with BT-549 breast was 52 µM; in the assay with NCI-H23 lung, 29.6 µM; in the assay with CCRF-CEM leukemia, 27.4 µM; in the assay with CAKI-1 renal, 26.7 µM; in the assay on HL-60(TB) leukemia, 79.9 µM; in the assay on COLO 205 colon it was 26.7 µM. Also, the results for the GI50 in the assay with RXF 393 renal, in the assay with HCT-15 colon and in the assay with NCI-H522 lung were 31 µM, 27.5 µM and 25.5 µM, respectively. For the same compound, the TGI with BT-549 breast was greater than 100 µM; in the assay on NCI-H23 lung it was 97.7 µM; in the assay with CCRF-CEM leukemia, greater than 100 µM; in the assay on CAKI-1 renal, 69.3 µM; in the assay on HL-60(TB) leukemia, greater than 100 µM; in the assay with COLO 205 colon it was greater than 86.3 µM. The results for the TGI in the assay on RXF 393 renal, in the assay with HCT-15 colon and with NCI-H522 lung were greater than 100 µM, greater than 100 µM and 69.7 µM, respectively.

On to `CCCCCCSSC(=S)N(CC)CC`, for which the GI50 in the assay on BT-549 breast is 17.1 µM; in the assay on SK-MEL-5 melanoma, 14.6 µM; in the assay on NCI-H23 lung, 27.8 µM; in the assay with CAKI-1 renal, 16.3 µM; in the assay on HL-60(TB) leukemia, 18.1 µM; in the assay with RXF 393 renal, 17.1 µM. Further, the GI50 was 28.4 µM with HCT-15 colon and 1.66 µM in the assay on NCI-H522 lung. The TGI with BT-549 breast was 45.2 µM; in the assay with SK-MEL-5 melanoma, 31.6 µM; with NCI-H23 lung it was 92.8 µM; in the assay with CAKI-1 renal, 36.1 µM; in the assay with HL-60(TB) leukemia, 52.3 µM; in the assay on RXF 393 renal it was 32.9 µM. Besides, the figures for the TGI in the assay on HCT-15 colon and in the assay on NCI-H522 lung were greater than 100 µM and 21.3 µM, respectively.
